From US12479834B2, “Phenol compound or salt thereof” (TAIHO PHARMACEUTICAL CO., LTD., priority 2019, dated 2025) come the findings set out here.

Assay [1] has as its target T1, G12C K-Ras4B (1-169) (Homo sapiens, UniProt P01116, G12C).
T1 construct: G12C K-Ras4B (1-169) protein, which was a KRAS G12C mutant; His tag (N, cleaved yes); made in house; host or cells: E. coli BL21 (DE3)
The assay is described as follows: Binding to KRAS G12C mutant, compound binding rate by LC-MS. The note with it: final compound concentration 2 μM, 1 μM protein, 2 hours at 25° C. The essentials: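 Covalent labelling at 2 μM final compound on a mix of 1 μM each wild-type and G12C K-Ras4B (1-169) (E. coli-expressed, tag removed) in 1×TBS, 0.1 mM TCEP, 2 h at 25° C., quenched with formic acid. Intact-protein ESI Q-TOF LC-MS; binding rate from adduct vs unbound protein signal, graded A–E in 20% bands.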

Assay [2] has as its target T2, KRAS G12C mutant (Homo sapiens, UniProt P01116, G12C).
T2 construct: 50 μM G12C K-Ras4B (1-169) protein and 1 mM BODIPY® FL GDP; His tag (N, cleaved yes); made in house; host or cells: E. coli BL21 (DE3)
The assay is described as follows: Inhibition of SOS1-mediated nucleotide (GDP-GTP) exchange reaction of KRAS G12C mutant, BODIPY FL GDP fluorescence. In kind it is biochemical. As to conditions: preincubated 25° C. 4 hours with 25 nM KRAS G12C bound with BODIPY FL GDP; SOS1 100 nM, GppNHp 1 μM, 30 minutes. The method in brief: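 KRAS G12C (1-169) loaded with BODIPY FL GDP (25 nM) was preincubated with compound (5% DMSO) for 4 h at 25 °C. Exchange then ran 30 min with SOS1 (564-1049, 100 nM) and 1 µM GppNHp. IC50 came from the 485/520 nm fluorescence change, normalized to DMSO and no-GppNHp controls.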

Molecules are shown by their SMILES.

As usually defined, the IC50 is the concentration that inhibits the measured activity by half. Read a high IC50 as weaker potency. For `C=CC(=O)N1CC(NC(=O)c2sc(CNc3cc(C(C)(C)C)c(Cl)cc3O)nc2C(F)(F)F)C1` [Example 24, N-(1-Acryloylazetidin-3-yl)-2-(((5-(tert-butyl)-4-chloro-2-hydroxyphenyl)amino)methyl)-4-(trifluoromethyl)thiazole-5-carboxamide], the “binding rate for G12C K-Ras4B (1-169)” value in assay [1] was “C (40% or more and less than 60%)”. For the same compound, in assay [2], the IC50 turned out to be 780 nM.
As for `C=CC(=O)N1CC(N(C)C(=O)c2cnc(CNc3cc(C(C)(C)C)c(Cl)cc3O)o2)C1` [Example 28, N-(1-Acryloylazetidin-3-yl)-2-(((5-(tert-butyl)-4-chloro-2-hydroxyphenyl)amino)methyl)-N-methyloxazole-5-carboxamide], the “binding rate for G12C K-Ras4B (1-169)” value in assay [1] is “C (40% or more and less than 60%)”. In assay [2], this compound registered an IC50 of 201 nM.
Regarding `C=CC(=O)N1CC(NC(=O)c2cnc(CNc3cc(S(F)(F)(F)(F)F)c(Cl)cc3O)n2C)C1` [Example 58, N-(1-Acryloylazetidin-3-yl)-2-(((4-chloro-2-hydroxy-5-(pentafluoro-λ6-sulfaneyl)phenyl)amino)methyl)-1-methyl-1H-imidazole-5-carboxamide], the “binding rate for G12C K-Ras4B (1-169)” value in assay [1] is “D (20% or more and less than 40%)”. This compound displayed an IC50 in assay [2] of 995 nM.
In the case of `C=CC(=O)N1CC(NC(=O)c2ccc(CNc3cc(C4CCC4)c(Cl)cc3O)o2)C1` [Example 53, N-(1-Acryloylazetidin-3-yl)-5-(((4-chloro-5-cyclobutyl-2-hydroxyphenyl)amino)methyl)furan-2-carboxamide], the “binding rate for G12C K-Ras4B (1-169)” value in assay [1] is “E (less than 20%)”. In assay [2], the IC50 was found to be 5970 nM.
Consider `C=CC(=O)N1CC(NC(=O)c2ccc(CNc3cc(C(C)(C)C)c(C#N)cc3O)o2)C1` [Example 67, N-(1-Acryloylazetidin-3-yl)-5-(((5-(tert-butyl)-4-cyano-2-hydroxyphenyl)amino)methyl)furan-2-carboxamide], for which the “binding rate for G12C K-Ras4B (1-169)” value in assay [1] was “C (40% or more and less than 60%)”. Also, the IC50 in assay [2] was found to be 1030 nM.
Regarding `C=CC(=O)N1CC(NC(=O)c2ccnc(CNc3cc(C(C)(C)C)c(Cl)cc3O)c2)C1` [Example 15, N-(1-Acryloylazetidin-3-yl)-2-(((5-(tert-butyl)-4-chloro-2-hydroxyphenyl)amino)methyl)isonicotinamide], the “binding rate for G12C K-Ras4B (1-169)” value in assay [1] was “D (20% or more and less than 40%)”. The compound also returned an IC50 in assay [2] of 825 nM.
For `C=CC(=O)N1CC(NC(=O)c2cnc(CNc3cc(C(C)(C)C)c(Cl)cc3O)o2)C1` [Example 11, N-(1-Acryloylazetidin-3-yl)-2-(((5-(tert-butyl)-4-chloro-2-hydroxyphenyl)amino)methyl)oxazole-5-carboxamide], in assay [1], the “binding rate for G12C K-Ras4B (1-169)” value was “B (60% or more and less than 80%)”. In assay [2], this compound yielded an IC50 of 123 nM.
Take `C=CC(=O)N1CC(NC(=O)c2ccc(CNc3cc(C(F)(F)F)c(Cl)cc3O)o2)C1` [Example 50, N-(1-Acryloylazetidin-3-yl)-5-(((4-chloro-2-hydroxy-5-(trifluoromethyl)phenyl)amino)methyl)furan-2-carboxamide]: the “binding rate for G12C K-Ras4B (1-169)” value in assay [1] was “D (20% or more and less than 40%)”. For the same compound, in assay [2], the half-maximal inhibitory concentration (IC50) was 3140 nM.
`C=CC(=O)N1CC(NC(=O)c2csc(CNc3cc(C(C)(C)C)c(Cl)cc3O)n2)C1` [Example 8, N-(1-Acryloylazetidin-3-yl)-2-(((5-(tert-butyl)-4-chloro-2-hydroxyphenyl)amino)methyl)thiazole-4-carboxamide]: the “binding rate for G12C K-Ras4B (1-169)” value in assay [1] is “A (80% or more)”. Also, the IC50 in assay [2] was found to be 58 nM.
Take `C=CC(=O)N1CC(NC(=O)c2cnc(CNc3cc(CCC)c(Cl)cc3O)n2C)C1` [Example 64, N-(1-Acryloylazetidin-3-yl)-2-(((4-chloro-2-hydroxy-5-propylphenyl)amino)methyl)-1-methyl-1H-imidazole-5-carboxamide]: the “binding rate for G12C K-Ras4B (1-169)” value in assay [1] was “D (20% or more and less than 40%)”. In assay [2], the IC50 worked out at 366 nM.
Consider `C=CC(=O)N1CC(NC(=O)c2cnc(CNc3cc(C(=C)C(F)(F)F)c(Cl)cc3O)n2C)C1` [Example 57, N-(1-Acryloylazetidin-3-yl)-2-(((4-chloro-2-hydroxy-5-(3,3,3-trifluoroprop-1-en-2-yl)phenyl)amino)methyl)-1-methyl-1H-imidazole-5-carboxamide], for which, in assay [1], the “binding rate for G12C K-Ras4B (1-169)” value was “D (20% or more and less than 40%)”. The IC50 in assay [2] turned out to be 522 nM.
With `C=CC(=O)N1CC(NC(=O)c2cnc(CNc3cc(C(C)(C)C)c(Cl)c(F)c3O)n2C)C1` [Example 73, N-(1-Acryloylazetidin-3-yl)-2-(((5-(tert-butyl)-4-chloro-3-fluoro-2-hydroxyphenyl)amino)methyl)-1-methyl-1H-imidazole-5-carboxamide], the “binding rate for G12C K-Ras4B (1-169)” value in assay [1] was “B (60% or more and less than 80%)”. This compound also gave an IC50 in assay [2] of 69 nM.
As to `C=CC(=O)N1CC(NC(=O)c2cnc(CNc3cc(C(C)(C)C)c(C)cc3O)n2C)C1` [Example 68, N-(1-Acryloylazetidin-3-yl)-2-(((5-(tert-butyl)-2-hydroxy-4-methylphenyl)amino)methyl)-1-methyl-1H-imidazole-5-carboxamide], the “binding rate for G12C K-Ras4B (1-169)” value in assay [1] is reported as “A (80% or more)”. Besides, the IC50 in assay [2] worked out at 33 nM.
Take `C=CC(=O)N1CC(NC(=O)c2ccc(CNc3ccc(Cl)c(C(C)(C)C)c3)o2)C1` [Reference Example2, N-(1-Acryloylazetidin-3-yl)-5-(((3-(tert-butyl)-4-chlorophenyl)amino)methyl)furan-2-carboxamide, reference compound]: the “binding rate for G12C K-Ras4B (1-169)” value in assay [1] is recorded as “E (less than 20%)”. The IC50 in assay [2] was above 10000 nM.
`C=CC(=O)N1CC(NC(=O)c2cnc(CNc3cc(C(C)C(F)(F)F)c(Cl)cc3O)n2C)C1` (stereo not drawn) [Example 59, N-(1-Acryloylazetidin-3-yl)-2-(((4-chloro-2-hydroxy-5-(1,1,1-trifluoropropan-2-yl)phenyl)amino)methyl)-1-methyl-1H-imidazole-5-carboxamide]: in assay [1], the “binding rate for G12C K-Ras4B (1-169)” value is “B (60% or more and less than 80%)”. The compound further yielded an IC50 in assay [2] of 140 nM.
As to `C=CC(=O)N1CC(NC(=O)c2oc(CNc3cc(C(C)(C)C)c(Cl)cc3O)cc2C)C1` [Example 21, N-(1-Acryloylazetidin-3-yl)-5-(((5-(tert-butyl)-4-chloro-2-hydroxyphenyl)amino)methyl)-3-methylfuran-2-carboxamide], in assay [1], the “binding rate for G12C K-Ras4B (1-169)” value was “B (60% or more and less than 80%)”. Besides, half-maximal inhibition in assay [2] (IC50) was put at 808 nM.
With `C=CC(=O)N1CC(NC(=O)c2cc(CNc3cc(C(C)(C)C)c(Cl)cc3O)ccc2F)C1` [Example 23, N-(1-Acryloylazetidin-3-yl)-5-(((5-(tert-butyl)-4-chloro-2-hydroxyphenyl)amino)methyl)-2-fluorobenzamide], the “binding rate for G12C K-Ras4B (1-169)” value in assay [1] was “C (40% or more and less than 60%)”. The compound further returned an IC50 in assay [2] of 1000 nM.
`C=CC(=O)N1CC(N(C)C(=O)c2cc(CNc3cc(C(C)(C)C)c(Cl)cc3O)co2)C1` [Example 34, N-(1-Acryloylazetidin-3-yl)-4-(((5-(tert-butyl)-4-chloro-2-hydroxyphenyl)amino)methyl)-N-methylfuran-2-carboxamide]: in assay [1], the “binding rate for G12C K-Ras4B (1-169)” value is given as “A (80% or more)”. In assay [2], this compound gave a half-inhibitory concentration (IC50) of 80 nM.
